System: CAL51 cell proliferation
Assay: Cell Titer Glo Proliferation Assay (CAL51)
Type: cell-based, human
Details: Homo sapiens, CAL-51; CAL51 cell proliferation, 72 h, Cell Titer Glo luminescence; read-out: Act. Level
In short: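 Viability is measured by CellTiter-Glo luminescence after 72 h of compound exposure. CAL51 cells were seeded in growth medium with 10% FBS and 2 mM glutamine, cultured overnight, then dosed with compound dilutions, vehicle held at 0.2% DMSO.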

| Compound | IC50 |
| --- | --- |
| CNC(=O)c1ccc(Nc2nc(OC3CCCC3)c3c(-c4ccc(NC(C)=O)c(O)c4)c[nH]c3n2)c(OC)c1 [Example 290, 4-(5-(4-acetamido-3-hydroxy-phenyl)-4-(cyclopentyloxy)-7H-pyrrolo[2,3-d]pyrimidin-2-ylamino)-3-methoxy-N-methylbenzamide] | 100 to 400 nM |
| COc1cc(C(=O)N2C[C@@H](O)[C@H](OC)C2)ccc1Nc1nc(OC2CCCC2)c2c(-c3ccc4nc(C)oc4c3)c[nH]c2n1 [Example 291, (4-(4-(cyclopentyloxy)-5-(2-methylbenzo[d]oxazol-6-yl)-7H-pyrrolo[2,3-d]pyrimidin-2-ylamino)-3-methoxyphenyl) ((3R,4R)-3-hydroxy-4-methoxypyrrolidin-1-yl) methanone] | < 100 nM |
| COc1cc(C(=O)NN2CCCCC2)ccc1Nc1nc(OC2CCCC2)c2c(-c3ccc4nc(C)oc4c3)c[nH]c2n1 [Example 292, 4-(4-(cyclopentyloxy)-5-(2-methylbenzo[d]oxazol-6-yl)-7H-pyrrolo[2,3-d]pyrimidin-2-ylamino)-3-methoxy-N-(piperidin-1-yl)benzamide] | 100 to 400 nM |
| CCOc1nc2ccc(-c3c[nH]c4nc(Nc5ccc(C(=O)NC)cc5OC)nc(OC5CCCC5)c34)cc2o1 [Example 293, 4-(4-(cyclopentyloxy)-5-(2-ethoxybenzo[d]oxazol-6-yl)-7H-pyrrolo[2,3-d]pyrimidin-2-ylamino)-3-methoxy-N-methylbenzamide] | 100 to 400 nM |
| CNC(=O)c1ccc(Nc2nc(OC3CCCC3)c3c(-c4ccc(N)c(O)c4)c[nH]c3n2)c(OC)c1 [Example 294, 4-(5-(4-amino-3-hydroxyphenyl)-4-(cyclopentyloxy)-7H-pyrrolo [2,3-d]pyrimidin-2-ylamino)-3-methoxy-N-methylbenzamide] | 100 to 400 nM |
| Cc1nc2ccc(-c3c[nH]c4nc(Nc5ccnn5C)nc(OC5CCCC5)c34)cc2o1 [Example 295, 4-(cyclopentyloxy)-N-(1-methyl-1H-pyrazol-5-yl)-5-(2-methylbenzo[d]oxazol-6-yl)-7H-pyrrolo[2,3-d]pyrimidin-2-amine] | 100 to 400 nM |
| Cc1nc2ccc(-c3c[nH]c4nc(Nc5cnn(C)c5C)nc(OC5CCCC5)c34)cc2o1 [Example 296, 4-(cyclopentyloxy)-N-(1,5-dimethyl-1H-pyrazol-4-yl)-5-(2-methylbenzo[d]oxazol-6-yl)-7H-pyrrolo[2,3-d]pyrimidin-2-amine] | < 100 nM |
| Cc1nc2ccc(-c3c[nH]c4nc(Nc5nn(C)cc5C)nc(OC5CCCC5)c34)cc2o1 [Example 297, 4-(cyclopentyloxy)-N-(1,4-dimethyl-1H-pyrazol-3-yl)-5-(2-methylbenzo[d]oxazol-6-yl)-7H-pyrrolo[2,3-d]pyrimidin-2-amine] | 1000 to 10000 nM |
| CNC(=O)c1cc(C)c(Nc2nc(OC3CCCC3)c3c(-c4ccc5nc(C)oc5c4)c[nH]c3n2)c(OC)c1 [Example 298, 4-(4-(cyclopentyloxy)-5-(2-methylbenzo[d]oxazol-6-yl)-7H-pyrrolo[2,3-d]pyrimidin-2-ylamino)-3-methoxy-N,5-dimethylbenzamide] | 1000 to 10000 nM |
| CNC(=O)c1ccc(Nc2nc(OC3CCCC3)c3c(-c4ccc5[nH]c(=O)oc5c4)c[nH]c3n2)c(OC)c1 [Example 299, 4-(4-(cyclopentyloxy)-5-(2-oxo-2,3-dihydrobenzo[d]oxazol-6-yl)-7H-pyrrolo[2,3-d]pyrimidin-2-ylamino)-3-methoxy-N-methylbenzamide] | 100 to 400 nM |
| COc1cc(C(=O)NC2(C)COC2)ccc1Nc1nc(OC2CCCC2)c2c(-c3ccc4nc(C)oc4c3)c[nH]c2n1 [Example 301, 4-(4-(cyclopentyloxy)-5-(2-methylbenzo[d]oxazol-6-yl)-7H-pyrrolo[2,3-d]pyrimidin-2-ylamino)-3-methoxy-N-(3-methyloxetan-3-yl)benzamide] | 100 to 400 nM |
| COc1cc(C(=O)NC2COC2)ccc1Nc1nc(OC2CCC2)c2c(-c3cnn(C)c3)c[nH]c2n1 [Example 302, 4-(4-cyclobutoxy-5-(1-methyl-1H-pyrazol-4-yl)-7H-pyrrolo[2,3-d]pyrimidin-2-ylamino)-3-methoxy-N-(oxetan-3-yl) benzamide] | 100 to 400 nM |
| COc1cc(C(=O)NC2COC2)ccc1Nc1nc(OC2CCCC2)c2c(-c3cnn(C)c3)c[nH]c2n1 [Example 303, 4-(4-(cyclopentyloxy)-5-(1-methyl-1H-pyrazol-4-yl)-7H-pyrrolo[2,3-d]pyrimidin-2-ylamino)-3-methoxy-N-(oxetan-3-yl)benzamide] | < 100 nM |
| CNC(=O)c1ccc(-c2c[nH]c3nc(Nc4ccc(C(=O)NC5COC5)cc4OC)nc(OC4CCCC4)c23)cc1 [Example 305, 4-(4-(cyclopentyloxy)-5-(4-(methylcarbamoyl)phenyl)-7H-pyrrolo[2,3-d]pyrimidin-2-ylamino)-3-methoxy-N-(oxetan-3-yl)benzamide] | < 100 nM |
| CNC(=O)c1ccc(Nc2nc(OC3CCCC3)c3c(-c4ccc5ncccc5c4)c[nH]c3n2)c(OC)c1 [Example 306, 4-(4-(cyclopentyloxy)-5-(quinolin-6-yl)-7H-pyrrolo[2,3-d]pyrimidin-2-ylamino)-3-methoxy-N-methylbenzamide] | < 100 nM |
| Cc1nc2ccc(-c3c[nH]c4nc(Nc5cn(C)nc5C)nc(OC5CCCC5)c34)cc2o1 [Example 307, 4-(cyclopentyloxy)-N-(1,3-dimethyl-1H-pyrazol-4-yl)-5-(2-methylbenzo[d]oxazol-6-yl)-7H-pyrrolo[2,3-d]pyrimidin-2-amine] | < 100 nM |
| COc1cc(C(=O)NC2CN(C(C)=O)C2)ccc1Nc1nc(OC2CCCC2)c2c(-c3ccc4nc(C)oc4c3)c[nH]c2n1 [Example 308, N-(1-acetylazetidin-3-yl)-4-(4-(cyclopentyloxy)-5-(2-methylbenzo[d]oxazol-6-yl)-7H-pyrrolo[2,3-d]pyrimidin-2-ylamino)-3-methoxybenzamide] | 100 to 400 nM |
| COc1cc(C(=O)NCC(C)(F)F)ccc1Nc1nc(OC2CCCC2)c2c(-c3ccc4nc(C)oc4c3)c[nH]c2n1 [Example 309, 4-(4-(cyclopentyloxy)-5-(2-methylbenzo[d]oxazol-6-yl)-7H-pyrrolo[2,3-d]pyrimidin-2-ylamino)-N-(2,2-difluoropropyl)-3-methoxybenzamide] | 100 to 400 nM |
| CNC(=O)c1ccc(-c2c[nH]c3nc(Nc4ccc(C(=O)NC5COC5)cc4OC)nc(OC4CCOCC4)c23)cc1 [Example 310, 3-methoxy-4-(5-(4-(methylcarbamoyl)phenyl)-4-(tetrahydro-2H-pyran-4-yloxy)-7H-pyrrolo[2,3-d]pyrimidin-2-ylamino)-N-(oxetan-3-yl) benzamide] | < 100 nM |
| COc1cc(C(=O)N2C[C@@H](OC)[C@H](OC)C2)ccc1Nc1nc(OC2CCCC2)c2c(-c3ccc4nc(C)oc4c3)c[nH]c2n1 [Example 311, (4-(4-(cyclopentyloxy)-5-(2-methylbenzo[d]oxazol-6-yl)-7H-pyrrolo[2,3-d]pyrimidin-2-ylamino)-3-methoxyphenyl) ((3R,4R)-3,4-dimethoxypyrrolidin-1-yl)methanone] | < 100 nM |
| COc1cc(C(=O)N2CC2(C)C)ccc1Nc1nc(OC2CCCC2)c2c(-c3ccc4nc(C)oc4c3)c[nH]c2n1 [Example 312, (4-(4-(cyclopentyloxy)-5-(2-methylbenzo[d]oxazol-6-yl)-7H-pyrrolo[2,3-d]pyrimidin-2-ylamino)-3-methoxyphenyl)(2,2-dimethylaziridin-1-yl)methanone] | 400 to 1000 nM |
| COc1cc(C(=O)N2C[C@@H]2C)ccc1Nc1nc(OC2CCCC2)c2c(-c3ccc4nc(C)oc4c3)c[nH]c2n1 [Example 313, (S)-(4-(4-(cyclopentyloxy)-5-(2-methylbenzo[d]oxazol-6-yl)-7H-pyrrolo[2,3-d]pyrimidin-2-ylamino)-3-methoxyphenyl)(2-methylaziridin-1-yl)methanone] | 400 to 1000 nM |
| COc1cc(C(=O)NC2COC2)ccc1Nc1nc(O[C@H]2CC[C@@](C)(O)CC2)c2c(-c3ccc4nc(C)oc4c3)c[nH]c2n1 [Example 314, 4-(4-((1s,4s)-4-hydroxy-4-methylcyclohexyloxy)-5-(2-methylbenzo[d]oxazol-6-yl)-7H-pyrrolo[2,3-d]pyrimidin-2-ylamino)-3-methoxy-N-(oxetan-3-yl)benzamide] | < 100 nM |
| COc1cc(C(=O)N2CC2)ccc1Nc1nc(O[C@H]2CC[C@@](C)(O)CC2)c2c(-c3ccc4nc(C)oc4c3)c[nH]c2n1 [Example 315, aziridin-1-yl(4-(4-((1s,4s)-4-hydroxy-4-methylcyclohexyloxy)-5-(2-methylbenzo[d]oxazol-6-yl)-7H-pyrrolo[2,3-d]pyrimidin-2-ylamino)-3-methoxyphenyl) methanone] | < 100 nM |
| CNC(=O)c1ccc(-c2c[nH]c3nc(Nc4ccnn4C)nc(OC4CCCC4)c23)cc1 [Example 316, 4-(4-(cyclopentyloxy)-2-(1-methyl-1H-pyrazol-5-ylamino)-7H-pyrrolo [2,3-d]pyrimidin-5-yl)-N-methylbenzamide] | < 100 nM |
| CNC(=O)c1ccc(-c2c[nH]c3nc(Nc4ccnn4C)nc(OC4CCOCC4)c23)cc1 [Example 317, N-methyl-4-(2-(1-methyl-1H-pyrazol-5-ylamino)-4-(tetrahydro-2H-pyran-4-yloxy)-7H-pyrrolo [2,3-d]pyrimidin-5-yl)benzamide] | 400 to 1000 nM |

Reference: patent publication US9346812B2, “Substituted pyrrolopyrimidine compounds, compositions thereof, and methods of treatment therewith” (Signal Pharmaceutical LLC, priority 2013, dated 2016)
